This is an account of results in patent US20250367173A1, “ECTONUCLEOTIDE PYROPHOSPHATASE-PHOSPHODIESTERASE-1 INHIBITORS AND PHARMACEUTICAL COMPOSITIONS COMPRISING THE SAME” (LigaChem Biosciences Inc., priority 2022, published 2025).

Test [1] concerns the target T1, ENPP-1 (Homo sapiens, UniProt P22413).
T1 construct: purchased Biovendor RD172124100
T1 sequence (P22413 1-925): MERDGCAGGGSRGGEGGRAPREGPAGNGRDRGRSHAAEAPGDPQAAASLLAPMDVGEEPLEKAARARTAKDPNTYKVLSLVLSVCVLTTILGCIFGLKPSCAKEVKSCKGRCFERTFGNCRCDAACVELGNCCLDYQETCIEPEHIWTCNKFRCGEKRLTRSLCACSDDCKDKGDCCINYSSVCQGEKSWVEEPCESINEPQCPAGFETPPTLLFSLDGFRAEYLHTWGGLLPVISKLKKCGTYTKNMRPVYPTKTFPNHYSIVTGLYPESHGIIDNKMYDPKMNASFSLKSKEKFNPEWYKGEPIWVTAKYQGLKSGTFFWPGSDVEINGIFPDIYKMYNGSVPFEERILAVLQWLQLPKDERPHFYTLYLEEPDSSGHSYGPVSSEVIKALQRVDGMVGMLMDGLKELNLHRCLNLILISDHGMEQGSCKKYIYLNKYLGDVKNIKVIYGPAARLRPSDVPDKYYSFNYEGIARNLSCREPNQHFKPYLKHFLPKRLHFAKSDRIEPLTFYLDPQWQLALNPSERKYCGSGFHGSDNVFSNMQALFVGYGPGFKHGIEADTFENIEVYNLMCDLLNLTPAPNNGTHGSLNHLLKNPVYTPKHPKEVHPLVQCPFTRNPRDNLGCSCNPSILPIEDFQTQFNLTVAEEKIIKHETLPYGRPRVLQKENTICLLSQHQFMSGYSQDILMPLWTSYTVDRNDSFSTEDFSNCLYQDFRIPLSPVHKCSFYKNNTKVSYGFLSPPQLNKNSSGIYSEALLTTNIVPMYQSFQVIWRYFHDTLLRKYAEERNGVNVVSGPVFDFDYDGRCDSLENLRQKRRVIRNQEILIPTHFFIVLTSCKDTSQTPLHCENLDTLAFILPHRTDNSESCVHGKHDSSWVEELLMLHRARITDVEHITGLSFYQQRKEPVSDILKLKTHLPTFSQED
The test can be described thus: ENPP-1 enzyme assay with cGAMP substrate. The following applies: 200 pM ENPP-1, 10 μM substrate 2′3′-cGAMP, pH 7.4, 37° C., 30 minutes, Transcreener AMP2/GMP2 kit; average IC50. The test is classed as biochemical. The procedure:
2′3′-cGAMP is a natural substrate specifically hydrolyzed by ENPP-1, and produces 5′-adenosine monophosphate (AMP) and 5′-guanosine monophosphate (GMP). AMP and GMP produced from the reaction are monitored for ENPP-1 enzyme activity through an AMP^2/GMP^2 ENPP-1 Assay kit (Bellbrook Labs, catalog number 3015).
First, the reaction mixture contains 25 mM Tris-HCl (pH 7.4), 5 mM MgCl2, 0.01% Brij-35, and 1% DMSO. Serially diluted ENPP-1 inhibitors (test compound concentrations ranging from 10 μM to 0.5 nM) are reacted with 200 pM ENPP-1 (Biovendor, catalog number RD172124100) and 10 μM substrate 2′3′-cGAMP at 37° C. for 30 minutes. All assays include a DMSO control without ENPP-1 inhibitor that provides maximal AMP and GMP production. After 30 minutes of this reaction, AMP and GMP production is detected as a measure of ENPP-1 enzymatic activity using the Transcreener® AMP^2/GMP^2 ENPP-1 Assay kit. The detection reagent is a reagent containing 16 nM AMP^2/GMP^2 Antibody-Tb, 25 mM Tris-HCl and 60.1 nM AMP/GMP HiLyte647 Tracer, which is added by 5 μl, mixed well, and incubated at 25° C. for 2 hours.
The […] signal is measured using a SPARK Cyto plate reader (Tecan). Inhibition (%) is calculated using the following formula: (Max 615:665 ratio-615:665 ratio)/Max 615:665 ratio×100%. % residual ENPP-1 enzyme activity versus IC50 values for ENPP-1 inhibitor concentrations were determined by fitting inhibition curves using the 4-parameter method of GraphPad Prism® software [GraphPad version 9.3.1 for Windows, GraphPad Software, La Jolla California USA, www.graphpad.com].

Test [2] has as its target T1, ENPP-1. The test can be described thus: ENPP-1 enzyme assay with pNP-TMP substrate. It counts as biochemical. The following applies: 12.5 ng ENPP-1, 720 μM substrate pNP-TMP, pH 9.0, 37° C., 60 minutes, absorbance 405 nm; average IC50. The procedure:
In order to measure the ENPP-1 inhibitory activity of the compounds according to the present disclosure, the following tests were performed.
ENPP-1 hydrolyzes a variety of substrates, including phosphodiester bonds of nucleotides and nucleotide sugars and pyrophosphate bonds of nucleotides and nucleotide sugars. p-Nitrophenyl 5′-thymidine monophosphate (p-Nph-5′-TMP) is an artificial substrate for 5′-adenosine monophosphate (AMP), which is hydrolyzed by the human recombinant ENPP-1 enzyme. In the above reaction, ENPP-1 enzymatic activity is monitored through the formation of yellow p-nitrophenolate, which absorbs at 405 nm.
First, the reaction mixture contains 100 mM Tris-HCl (pH 9.0), 150 mM NaCl, […], and 1% DMSO. Serially diluted ENPP-1 inhibitors (test compound concentrations ranging from 10 μM to 0.5 nM) are reacted with 12.5 ng of ENPP-1 (Biovendor, catalog number RD172124100) and 720 μM substrate pNP-TMP at 37° C. for 60 minutes. All assays include a DMSO control without ENPP-1 inhibitor that gives maximum absorbance.
After 60 minutes of this reaction, the […] is measured using an Epoch™ Microplate Spectrophotometer (BioTek Instruments Inc.). Inhibition (%) is calculated using the following formula: Sample OD405 nm/Max OD405 nm×100%. % residual ENPP-1 enzyme activity versus IC50 values for ENPP-1 inhibitor concentrations were determined by fitting inhibition curves using the 4-parameter method of GraphPad Prism® software [GraphPad version 9.3.1 for Windows, GraphPad Software, La Jolla California USA, www.graphpad.com].

`NS(=O)(=O)c1ccc(Cn2c3ccc(OC(F)(F)F)cc3c3ncccc32)cc1` [Compound 22, 4-((8-(trifluoromethoxy)-5H-pyrido[3,2-b]indol-5-yl)methyl)benzenesulfonamide]: the results for the IC50 in test [1] and in test [2] were 1000 to 10000 nM and under 1000 nM, respectively.

Regarding `COc1ccc2c(c1)c1ncccc1n2CC1CCN(S(N)(=O)=O)CC1` [Compound 6, 4-((8-methoxy-5H-pyrido[3,2-b]indol-5-yl)methyl) piperidine-1-sulfonamide], the IC50 in test [1] and in test [2] was under 1000 nM throughout.

Turning to `COc1ccc2c(c1)c1ccncc1n2Cc1ccc(S(N)(=O)=O)cc1` [Compound 2, 4-((6-methoxy-9H-pyrido[3,4-b]indol-9-yl)methyl)benzenesulfonamide], the IC50 in test [1] and in test [2] was under 1000 nM in each case.

`COc1ccc2c(c1)c1ncccc1n2Cc1ccc(S(N)(=O)=O)cc1F` [Compound 15, 3-fluoro-4-((8-methoxy-5H-pyrido[3,2-b]indol-5-yl)methyl)benzenesulfonamide]: the 50% inhibitory concentration (IC50) in test [1] and in test [2] was under 1000 nM throughout.

Turning to `COc1ccc2c(c1)c1cnccc1n2Cc1ccc(S(N)(=O)=O)cc1` [Compound 4, 4-((8-methoxy-5H-pyrido[4,3-b]indol-5-yl)methyl)benzenesulfonamide], the 50% inhibitory concentration (IC50) in test [1] and in test [2] was under 1000 nM each time.

`COc1ccc2c(c1)c1ncccc1n2Cc1ccc(CP(=O)(O)O)cc1` [Compound 14, (4-((8-methoxy-5H-pyrido[3,2-b]indol-5-yl)methyl)benzyl)phosphonic acid]: the IC50 in test [1] and in test [2] was under 1000 nM throughout.

For the compound `COc1ccc2c3cnccc3n(Cc3ccc(S(N)(=O)=O)cc3)c2c1` [Compound 52, 4-((7-methoxy-5H-pyrido[4,3-b]indol-5-yl)methyl)benzenesulfonamide], the figures for the IC50 in test [1] and in test [2] were 1000 to 10000 nM and under 1000 nM, respectively.

As for `CS(=N)(=O)c1ccc(Cn2c3ccccc3c3ccncc32)cc1` (stereo not shown) [Compound 1, (4-((9H-pyrido[3,4-b]indol-9-yl)methyl)phenyl)(imino)(methyl)-l6-sulfanone], the IC50 in test [1] was 1000 to 10000 nM; in test [2], under 1000 nM.

Regarding `COc1ccc2c(c1)c1c(=O)[nH]ncc1n2Cc1ccc(S(N)(=O)=O)cc1` [Compound 44, 4-((8-methoxy-1-oxo-1,2-dihydro-5H-pyridazino[4,5-b]indol-5-yl)methyl)benzene sulfonamide], the IC50 in test [1] and in test [2] was under 1000 nM in each case.

`COc1ccc2c(c1)c1ncccc1n2Cc1ccc(S(N)(=O)=O)cc1` [Compound 5, 4-((8-methoxy-5H-pyrido[3,2-b]indol-5-yl)methyl)benzenesulfonamide]: the IC50 in test [1] and in test [2] was under 1000 nM in each case.

Turning to `NS(=O)(=O)c1ccc(Cn2c3ccc(Cl)cc3c3ncccc32)cc1` [Compound 21, 4-((8-chloro-5H-pyrido[3,2-b]indol-5-yl)methyl)benzenesulfonamide], the IC50 in test [1] and in test [2] was under 1000 nM throughout.

In the case of `COc1ccc2c3ncccc3n(Cc3ccc(S(N)(=O)=O)cc3)c2c1` [Compound 53, 4-((7-methoxy-5H-pyrido[3,2-b]indol-5-yl)methyl)benzenesulfonamide], the IC50 in test [1] and in test [2] was under 1000 nM throughout.

For `COc1cc(F)c2c(c1)c1ncccc1n2Cc1ccc(S(N)(=O)=O)cc1` [Compound 25, 4-((6-fluoro-8-methoxy-5H-pyrido[3,2-b]indol-5-yl)methyl)benzenesulfonamide], the figures for the concentration for half-maximal inhibition (IC50) in test [1] and in test [2] were 1000 to 10000 nM and under 1000 nM, respectively.

As to `COc1ccc2c(c1)c1ncccc1n2Cc1ccc(S(C)(=N)=O)cc1OC` (stereo not shown) [Compound 19, imino (3-methoxy-4-((8-methoxy-5H-pyrido[3,2-b]indol-5-yl)methyl)phenyl)(methyl)-l6-sulfanone], the half-inhibitory concentration (IC50) in test [1] and in test [2] was under 1000 nM each time.
